Reference: patent US6994868B2, “Compositions useful as inhibitors of ERK” (Vertex Pharmaceuticals Incorporated, priority 2000, dated 2006)
pKi: −log10 of the molar value.

The compounds below were run against activated ERK2 (Homo sapiens, UniProt P28482) (assay: ERK inhibition assay (spectrophotometric coupled-enzyme assay)). Conditions: activated ERK2 10 nM, 65 μM ATP, 200 μM erktide peptide, 30° C., pH 7.5; read-out: ERK2 Inhibitory Activity (Ki class).
Format: biochemical

activated ERK2, sequence (P28482 whole entry): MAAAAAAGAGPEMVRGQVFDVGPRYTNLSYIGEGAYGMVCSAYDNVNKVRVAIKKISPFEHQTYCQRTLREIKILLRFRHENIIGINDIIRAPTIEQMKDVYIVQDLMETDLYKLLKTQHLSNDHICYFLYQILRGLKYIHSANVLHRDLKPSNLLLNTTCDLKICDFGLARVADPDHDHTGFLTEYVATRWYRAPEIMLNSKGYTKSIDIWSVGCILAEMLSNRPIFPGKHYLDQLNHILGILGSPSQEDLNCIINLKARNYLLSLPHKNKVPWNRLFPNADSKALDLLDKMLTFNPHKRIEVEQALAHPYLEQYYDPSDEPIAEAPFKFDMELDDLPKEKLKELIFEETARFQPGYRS

Compound	pKi
COc1ccccc1CNC(=O)c1cc(-c2[nH]ncc2-c2cccc(F)c2)c[nH]1 [II-A-63]	> 6.00
O=C(NCc1ccncc1)c1cc(-c2[nH]ncc2-c2cccc(F)c2)c[nH]1 [II-A-80]	> 6.00
O=C(NCc1ccccc1)c1cc(-c2[nH]ncc2-c2cccc(Cl)c2F)c[nH]1 [II-A-82]	> 6.00
O=C(NCc1ccccc1)c1cc(-c2[nH]ncc2-c2ccc(F)c(F)c2)c[nH]1 [II-A-85]	> 6.00
O=C(NCc1ccccc1)c1cc(-c2[nH]ncc2-c2cccc(F)c2F)c[nH]1 [II-A-103]	> 6.00
O=C(c1cc(-c2[nH]ncc2-c2ccccc2)c[nH]1)N1CCCC1 [II-A-134]	5.30 to 6.00
COc1cccc(-c2cn[nH]c2-c2c[nH]c(C(=O)N3CCCC3)c2)c1 [II-A-144]	5.30 to 6.00
COc1cccc(-c2cn[nH]c2-c2c[nH]c(C(=O)NCc3cccnc3)c2)c1 [II-A-145]	5.30 to 6.00
COc1cccc(-c2cn[nH]c2-c2c[nH]c(C(=O)NCc3ccco3)c2)c1 [II-A-147]	5.30 to 6.00
O=C(NCc1ccco1)c1cc(-c2[nH]ncc2-c2ccccc2)c[nH]1 [II-A-149]	5.30 to 6.00
O=C(c1cc(-c2[nH]ncc2-c2ccccc2)c[nH]1)N1CCOCC1 [II-A-150]	5.30 to 6.00
O=C(NCc1cccnc1)c1cc(-c2[nH]ncc2-c2ccccc2)c[nH]1 [II-A-153]	5.30 to 6.00
COc1cccc(-c2cn[nH]c2-c2c[nH]c(C(=O)N(C)C)c2)c1 [II-A-154]	5.30 to 6.00
CC(C)NC(=O)c1cc(-c2[nH]ncc2-c2ccccc2)c[nH]1 [II-A-158]	5.30 to 6.00
COc1cccc(-c2cn[nH]c2-c2c[nH]c(C(=O)N3CCC(C)CC3)c2)c1 [II-A-163]	< 5.30
